Results published in US10952992B2, “Methods of treating intraocular pressure with activators of Tie-2” (Aerpio Pharmaceuticals, Inc., priority 2015, dated 2021).
Counter-ions that a name gives are not always drawn.

Tests used:
[1] = tested on: intraocular pressure in patients with diabetic macular edema; assay: Change in intraocular pressure from baseline, Compound 1 BID for 28 days (FIG. 1); format: in vivo, human; details: doses greater than 15 mg BID, 28 Day EOT
Procedure: The difference in IOP was determined at the end of the trial, which was 28 days after treatment began (28 Day EOT). Changes in IOP were determined both in the study eye and the fellow eye.

eye = assay: Example 3 ophthalmic examination, modified McDonald-Shadduck scoring (tolerability); format: in vivo, New Zealand White rabbits
Procedure: Prior to placement on study, each animal underwent an ophthalmic examination (slitlamp biomicroscopy and indirect ophthalmoscopy). Ocular findings were scored according to a modified McDonald-Shadduck Scoring System and recorded on a standardized data sheet. The acceptance criteria for placement on study were scores of “0” for all variables.
Ophthalmic examination (slit-lamp biomicroscopy only) was performed at baseline (prior to the start of dosing) and on Days 1, 4, and 8. Ocular findings were scored according to a modified McDonald-Shadduck Scoring System. A slit lamp was used to observe conjunctival discharge, […], […], the cornea, the surface area of cornea involvement, pannus, pupillary response, aqueous flare, cellular flare, iris involvement, and the lens. An indirect ophthalmoscope was used to observe the vitreous, vitral hemorrhage, retinal detachment, retinal hemorrhage, and choroidal/retinal inflammation. Animals were prepared for observation by using a solution (atropine, tropicaminde, or phenylephrine) to dilate the pupils.
Conjunctival discharge was defined as a whitish gray precipitate from the eye. Scoring was as follows. • 0=Normal, no discharge. • 1=Discharge above normal and present on the inner portion of the eye but not on the lids or hairs of the eyelids. • 2=Discharge is abundant, easily observed and has collected on the lids and hairs of the eyelids. • 3=Discharge has been flowing over the eyelids so as to wet the hairs substantially on the skin around the eye.
Conjunctival congestion causes the blood vessels of the eye to become enlarged. Scoring was as follows. • 0=Normal, may appear blanched to reddish pink without perilimbal injection (except at the 12:00 and 6:00 positions) with vessels of the palpebral and bulbar conjunctiva easily observed. • 1=A flushed, reddish color predominantly confined to the palpebral conjunctiva with some perilimbal injection but primarily confined to the lower and upper parts of the eye from the 4:00 to the 7:00 and 11:00 to 1:00 positions. • 2=Bright red color of the palpebral conjunctiva with accompanying perilimbal injection covering at least 75% of the circumference of the perilimbal region. • 3=Dark, beefy red color with congestion of both the bulbar and palpebral conjunctiva along with pronounced perilimbal injection and the presence of petechial on the conjunctiva. The petechial generally predominates along the nictitating membrane and upper palprebal conjunctiva.
Conjunctival swelling, defined as swelling of the conjunctiva, was scored as follows. • 0=Normal or no swelling of the conjunctival tissue. • 1=Swelling above normal without eversion of the eyelids (easily discerned by noting upper and lower eyelids are positioned as in the normal eye); swelling generally starts in the lower cul-de-sac near the inner canthus. • 2=Swelling with misalignment of the normal approximation of the lower and upper eyelids; primarily confined to the upper eyelid so that in the initial stages, the misapproximation of the eyelids begins by partial eversion of the upper eyelid. In this state the swelling is confined generally to the upper eyelid with some swelling in the lower cul-de-sac. • 3=Swelling definite with partial eversion of the upper and lower eyelids essentially equivalent. […] It is difficult to retract the lids and observe the perilimbal region.
Iris involvement was observed by checking the iris for hyperemia of the blood vessels. Scoring was as follows. • 0=Normal iris without any hyperemia of the blood vessels. • 1=Some loss of transparency. Only the epithelium and/or the anterior half of the stroma are involved. The underlying structures are clearly visible although some cloudiness may be readily apparent. • 2=Involvement of the entire thickness of the stroma. […]

[2] = Example 3 general health observations; format: in vivo, New Zealand White rabbits; details: Example 3, 7 days topical or subcutaneous dosing
Procedure: Animals were observed within their cages once daily throughout the study period. […] General health observations were recorded daily beginning on Day 1 and continuing throughout the course of the study.

[3] = Day 1, Group 2 (0.45 mg/eye topical BID), N=5

SMILES: COC(=O)N[C@@H](Cc1ccccc1)C(=O)N[C@@H](Cc1ccc(NS(=O)(=O)O)cc1)c1csc(-c2cccs2)n1 [Compound 1]
- change in IOP relative to pre-treatment baseline [1]: decreased IOP

SMILES: COC(=O)N[C@@H](Cc1ccccc1)C(=O)N[C@@H](Cc1ccc(NS(=O)(=O)O)cc1)c1csc(-c2cccs2)n1 [Compound 1 sodium salt]
- animals with mild conjunctival congestion (scores=1) (eye; [3]): five
- animals with mild conjunctival swelling (eye; [3]): one
- animals with mild conjunctival congestion (scores=1) (eye; Day 1, Group 3 (1.2 mg/eye topical BID), N=5): two
- animals with mild conjunctival congestion (scores=1) (eye; Day 1, Group 4 (1.2 mg/eye topical QD), N=5): one
- animals with mild conjunctival congestion (scores=1) (eye; Day 1, Group 5 (10 mg/kg SC BID), N=5): three
- animals with mild conjunctival congestion (scores=1) (eye; Day 4, Group 2 (0.45 mg/eye topical BID), N=5): two
- animals with mild conjunctival congestion (scores=1) (eye; Day 4, Group 3 (1.2 mg/eye topical BID), N=5): two
- animals with mild conjunctival congestion (scores=1) (eye; Day 4, Group 4 (1.2 mg/eye topical QD), N=5): one
- animals with mild conjunctival congestion (scores=1) (eye; Day 4, Group 5 (10 mg/kg SC BID), N=5): none
- ocular anomalies (eye; Day 8, all groups): No ocular anomalies
- relation of mild conjunctival congestion to test article (eye; Example 3): unrelated to the test article
- adverse effects on general health [2]: No adverse effects
